Laboratory results as given in PMC6112376, “Comprehensive Analyses and Prioritization of Tox21 10K Chemicals Affecting Mitochondrial Function by in-Depth Mechanistic Studies” (Environmental Health Perspectives, 2018).
Read-outs that look alike come from different tables or passages of the source.

Tests used:
[1] = system: mitochondrial respiratory chain complex I; assay type: biochemical, rat
[2] = system: mitochondrial respiratory chain complex V; assay type: biochemical, rat; settings: at 20μM
HepG2 cells [3] = experiment: Intracellular ATP content (cell viability) assay; assay type: cell-based, human; settings: Homo sapiens, HepG2, 40 h
hNSC = experiment: MMP assay in human neural stem cells (hNSC); assay type: cell-based; settings: Homo sapiens, Neural stem cell, 1 h, read-out: hNSC IC50 (MMP)
[4] = system: Nrf2/ARE (ARE-bla HepG2 cells); experiment: ARE β-lactamase reporter gene assay; assay type: cell-based, human; settings: 16 h incubation; mean±SD of three experiments
HepG2 cells [5] = experiment: ROS-Glo hydrogen peroxide (ROS) assay; assay type: cell-based, human; settings: Homo sapiens, HepG2, 2 h, read-out: ROS (HepG2) EC50
[6] = system: HeLa cells expressing YFP-Parkin; experiment: Parkin translocation assay; assay type: cell-based, human
rat primary hepatocytes [7] = system: rat primary hepatocytes
rat primary hepatocytes [8] = experiment: MMP assay in rat primary hepatocytes; settings: Rattus norvegicus, Hepatocyte
HepG2 cells [9] = settings: cited from earlier work
[10] = system: mitochondrial respiratory chain complex III; assay type: biochemical, rat
[11] = system: isolated rat liver mitochondria; experiment: Oxygen consumption, Clark-type oxygen electrode; assay type: biochemical
[12] = system: mitochondrial respiratory chain complex IV; assay type: biochemical, rat
[13] = target: T1, mitochondrial respiratory chain complex II (Rattus norvegicus, UniProt P21913+Q641Z9+Q6PCT8+Q920L2); experiment: Respiratory chain complex II activity; assay type: biochemical; settings: at 0.8μM; mean±SD of three experiments
T1 construct: Submitochondrial particles were prepared by subjecting the intact rat mitochondria, isolated as described above, to three successive freeze–thaw cycles; from tissue; host or cells: rat liver mitochondria (submitochondrial particles)
T1 sequence (Q920L2 35-656): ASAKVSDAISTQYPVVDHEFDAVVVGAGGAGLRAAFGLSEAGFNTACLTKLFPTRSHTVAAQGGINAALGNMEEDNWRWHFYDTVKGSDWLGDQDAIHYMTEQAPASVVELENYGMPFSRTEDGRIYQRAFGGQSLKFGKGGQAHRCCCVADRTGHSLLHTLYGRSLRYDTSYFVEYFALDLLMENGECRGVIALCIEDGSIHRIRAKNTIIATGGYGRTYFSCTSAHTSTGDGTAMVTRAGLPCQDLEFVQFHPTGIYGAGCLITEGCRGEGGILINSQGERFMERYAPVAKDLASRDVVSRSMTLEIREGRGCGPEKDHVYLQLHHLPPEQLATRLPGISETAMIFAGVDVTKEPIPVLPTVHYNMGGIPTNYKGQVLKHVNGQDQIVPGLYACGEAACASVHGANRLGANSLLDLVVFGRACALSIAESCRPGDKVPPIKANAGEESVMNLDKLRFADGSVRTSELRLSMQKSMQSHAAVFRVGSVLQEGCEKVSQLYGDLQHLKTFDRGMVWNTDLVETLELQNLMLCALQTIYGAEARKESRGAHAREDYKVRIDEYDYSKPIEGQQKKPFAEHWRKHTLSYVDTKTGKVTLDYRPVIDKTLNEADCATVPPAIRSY
T1 sequence (P21913 31-282): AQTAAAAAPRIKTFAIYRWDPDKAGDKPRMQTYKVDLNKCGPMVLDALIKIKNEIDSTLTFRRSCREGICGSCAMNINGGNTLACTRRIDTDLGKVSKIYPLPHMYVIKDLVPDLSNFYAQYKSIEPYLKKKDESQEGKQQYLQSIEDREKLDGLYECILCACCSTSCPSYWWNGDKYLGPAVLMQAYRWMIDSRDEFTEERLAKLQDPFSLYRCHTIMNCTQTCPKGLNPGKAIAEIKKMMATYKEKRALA
T1 sequence (Q641Z9 1-169): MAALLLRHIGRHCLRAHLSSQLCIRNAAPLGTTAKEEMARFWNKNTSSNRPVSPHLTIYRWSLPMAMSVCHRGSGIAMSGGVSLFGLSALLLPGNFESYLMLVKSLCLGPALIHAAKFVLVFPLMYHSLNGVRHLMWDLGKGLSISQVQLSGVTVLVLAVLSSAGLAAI
T1 sequence (Q6PCT8 57-159): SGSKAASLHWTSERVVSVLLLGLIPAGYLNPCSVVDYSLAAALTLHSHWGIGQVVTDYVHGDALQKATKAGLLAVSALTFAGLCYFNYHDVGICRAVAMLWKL

HepG2 cells [14] = experiment: cells; settings: Homo sapiens
[15] = system: Caenorhabditis elegans (Bristol N2); experiment: C. elegans larval development and growth assay
[16] = system: Caenorhabditis elegans strain PE255; experiment: In vivo C. elegans ATP status assay
[17] = system: Caenorhabditis elegans (Bristol N2); settings: Bristol N2 (wild type), Caenorhabditis elegans, in vivo
[18] = system: p53 (p53-bla HCT-116 cells); experiment: p53 β-lactamase reporter gene assay; assay type: cell-based, human; settings: Homo sapiens; 16 h incubation; mean±SD of three experiments

For `O=C(Nc1ccc(Oc2ccc(Cl)cc2)c(Cl)c1)c1cc(I)cc(I)c1O` [Rafoxanide, reference compound], the “Complex I % inhibition (activity call)” value [1] was “Inactive”, the “Complex V % inhibition” value [2] was 40.1±1.87 at 20μM % and the IC50 (HepG2 cells [3]; read-out: ATP (HepG2, galactose) IC50) was 54.1 µM. The IC50 (HepG2 cells [3]; read-out: ATP (HepG2, glucose) IC50) was 46.7 µM, the IC50 (hNSC) was 10.3 µM and the “ARE (HepG2) EC50” value [4] was “Inactive”. The EC50 (HepG2 cells [5]) was 26.5 µM, the Parkin recruitment [6] was “Active” and the “MMP assays efficacy (%) Rat Hepatocytes” value (rat primary hepatocytes [7]) was -91±18%. The “Rat hepatocytes (efficacy) (MMP)” value (rat primary hepatocytes [7]) was 4.50±0.81 ( −72.1±10.3 ) %, the IC50 (rat primary hepatocytes [8]; 1 h, read-out: Rat hepatocytes IC50 (MMP)) was 4.5 µM and the IC50 (rat primary hepatocytes [8]; read-out: MMP assays IC50 (µM) Rat Hepatocytes) was 1.86 ± 0.83 µM. For the same compound, the “MMP assays efficacy (%) qHTS-HepG2” value (HepG2 cells [9]) was -110±8%, the IC50 (HepG2 cells [9]; read-out: MMP assays IC50 (µM), qHTS-HepG2) was 3.27 ± 1.76 µM and the “Complex III % inhibition (activity call)” value [10] was “Inactive”. The “Potential Mechanism” value [11] was “Uncoupler + inhibitor”, the “I-ADP, % of control (O2 consumption rate)” value ([11]; 0.0064 µM) was 93 (51.1) % of control and the “I-sub, % of control (O2 consumption rate)” value ([11]; 0.0064 µM) was 94 (12.3) % of control. The “II-ADP, % of control (O2 consumption rate)” value (shortened to “II-ADP, % of control”) ([11]; 0.0064 µM) was 100 (88.4) % of control, the “II-sub, % of control (O2 consumption rate)” value (“II-sub, % of control” for short) ([11]; 0.0064 µM) was 99 (24.3) % of control and the “I-ADP, % of control (O2 consumption rate)” value ([11]; 0.032 µM) was 90 (41.4) % of control. For the same compound, the “I-sub, % of control (O2 consumption rate)” value ([11]; 0.032 µM) was 118 (13.2) % of control, the “II-ADP, % of control” value ([11]; 0.032 µM) was 70 (52.6) % of control and the “II-sub, % of control” value ([11]; 0.032 µM) was 97 (20.0) % of control. For the same compound, the “I-ADP, % of control (O2 consumption rate)” value ([11]; 0.16 µM) was 105 (48.3) % of control, the “I-sub, % of control (O2 consumption rate)” value ([11]; 0.16 µM) was 163 (18.3) % of control and the “II-ADP, % of control” value ([11]; 0.16 µM) was 63 (47.1) % of control. The “II-sub, % of control” value ([11]; 0.16 µM) was 116 (23.9) % of control, the “I-ADP, % of control (O2 consumption rate)” value ([11]; 0.8 µM) was 121 (55.6) % of control and the “I-sub, % of control (O2 consumption rate)” value ([11]; 0.8 µM) was 379 (42.5) % of control. The “II-ADP, % of control” value ([11]; 0.8 µM) was 45 (33.6) % of control, the “II-sub, % of control” value ([11]; 0.8 µM) was 137 (28.2) % of control and the “I-ADP, % of control (O2 consumption rate)” value ([11]; 4 µM) was 95 (43.7) % of control. The “I-sub, % of control (O2 consumption rate)” value ([11]; 4 µM) was 399 (44.7) % of control, the “II-ADP, % of control” value ([11]; 4 µM) was 23 (17.4) % of control and the “II-sub, % of control” value ([11]; 4 µM) was 88 (18.1) % of control. For the same compound, the “I-ADP, % of control (O2 consumption rate)” value ([11]; 20 µM) was 15 (7.1) % of control, the “I-sub, % of control (O2 consumption rate)” value ([11]; 20 µM) was 116 (13.0) % of control and the “II-ADP, % of control” value ([11]; 20 µM) was 15 (11.3) % of control. The “II-sub, % of control” value ([11]; 20 µM) was 55 (11.4) % of control, the “Complex IV % inhibition (activity call)” value [12] was “Inactive” and the inhibition at 0.8 µM [13] was 44.4 ± 6.56%. It also gave an IC50 (HepG2 cells [14]; HepG2, 1 h, read-out: HepG2 IC50 Galactose (MMP)) of 18.6 µM, an IC50 (HepG2 cells [14]; HepG2, 1 h, read-out: HepG2 IC50 Glucose (MMP)) of 20.9 µM and an IC50 (HepG2 cells [14]; HepG2, read-out: MMP assays IC50 (µM) HepG2) of 1.23 µM. For the same compound, the Emax (HepG2 cells [14]; HepG2, read-out: MMP assays efficacy (%) HepG2) was 119%, the “EXT: mean difference in nematode size relative to plate controls” value ([15]; 0.5 µM) was -0.03197 and the “EXT: mean difference in nematode size relative to plate controls” value ([15]; 1 µM) was 0.04544. The “EXT: mean difference in nematode size relative to plate controls” value ([15]; 5 µM) was 0.3092, the “EXT: mean difference in nematode size relative to plate controls” value ([15]; 10 µM) was 0.3633 and the “EXT: mean difference in nematode size relative to plate controls” value ([15]; 25 µM) was 1.242. For the same compound, the “EXT: mean difference in nematode size relative to plate controls” value ([15]; 50 µM) was 1.69, the “EXT: mean difference in nematode size relative to plate controls” value ([15]; 75 µM) was 0.8224 and the “EXT: mean difference in nematode size relative to plate controls” value ([15]; 100 µM) was 0.8924. The minimal effective concentration ([15]; Caenorhabditis elegans, read-out: LEC EXT: lowest effect concentration for extinction, a measure of nematode size) was 2.5 µM, the “LUM: mean difference in luminescence (ATP content) relative to plate controls” value ([16]; 0.5 µM) was 0.09174 and the “LUM: mean difference in luminescence (ATP content) relative to plate controls” value ([16]; 1 µM) was -0.0514. For the same compound, the “LUM: mean difference in luminescence (ATP content) relative to plate controls” value ([16]; 5 µM) was 0.4289, the “LUM: mean difference in luminescence (ATP content) relative to plate controls” value ([16]; 10 µM) was 0.2032 and the “LUM: mean difference in luminescence (ATP content) relative to plate controls” value ([16]; 25 µM) was 0.5878. The “LUM: mean difference in luminescence (ATP content) relative to plate controls” value ([16]; 50 µM) was 0.4453, the “LUM: mean difference in luminescence (ATP content) relative to plate controls” value ([16]; 75 µM) was 0.5488 and the “LUM: mean difference in luminescence (ATP content) relative to plate controls” value ([16]; 100 µM) was 0.6986. For the same compound, the minimal effective concentration ([16]; Caenorhabditis elegans, read-out: LEC LUM: lowest effect concentration for luminescence, a measure of nematode ATP content) was 75 µM, the “LEC (lowest effect concentration), larval growth assay” value [17] was ≤ 10 µM and the EC50 [18] was 9.11 ± 3.81 µM.
